Experimental data published in patent US11078198B2 (BRISTOL-MYERS SQUIBB COMPANY, priority 2017, dated 2021).

biological target: T1, human FXR (Homo sapiens, UniProt Q96RI1); assay: transient human FXR/Gal4-luciferase reporter assay; assay type: cell-based; details: Gal4-hFXR transfected HEK293 reporter cells; relative to 8 μM GW-4064
T1 construct: expressed in transfected cells; host or cells: HEK293 cells stably carrying a 5xGal4-response-element firefly luciferase reporter, transiently transfected with pcDNA3.1-Gal4-FXR
T1 sequence (Q96RI1 262-486 limits assumed): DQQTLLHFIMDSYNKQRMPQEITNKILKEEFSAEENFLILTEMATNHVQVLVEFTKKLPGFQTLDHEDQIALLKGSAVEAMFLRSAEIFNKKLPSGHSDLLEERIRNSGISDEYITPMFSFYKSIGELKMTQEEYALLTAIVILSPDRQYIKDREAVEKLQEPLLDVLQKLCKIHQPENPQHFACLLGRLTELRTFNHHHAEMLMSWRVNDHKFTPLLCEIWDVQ
Outline: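 HEK293 cells stably carrying a 5×Gal4-response-element firefly luciferase reporter, transiently transfected overnight with a CMV-driven Gal4 DNA-binding domain/human FXR ligand-binding domain fusion.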

Row | EC50 [nM] | SMILES
1 | 48 | O=C(NS(=O)(=O)C1CC1)c1cc(OC(F)F)c2cc(N3CCC4(C=C(c5c(-c6ncccc6Cl)noc5C5CC5)C4)CC3)ccc2n1 [Example 189, 6-(2-(3-(3-Chloropyridin-2-yl)-5-cyclopropylisoxazol-4-yl)-7-azaspiro[3.5]non-1-en-7-yl)-N-(cyclopropylsulfonyl)-4-(difluoromethoxy)quinoline-2-carboxamide]
2 | 168 | CS(=O)(=O)NC(=O)c1cc(OC(F)F)c2cc(N3CCC4(C=C(c5c(-c6ncccc6Cl)noc5C5CC5)C4)CC3)ccc2n1 [Example 190, 6-(2-(3-(3-Chloropyridin-2-yl)-5-cyclopropylisoxazol-4-yl)-7-azaspiro[3.5]non-1-en-7-yl)-4-(difluoromethoxy)-N-(methylsulfonyl)quinoline-2-carboxamide]
3 | 140 | O=C(NS(=O)(=O)C1CC1)c1cc(OC(F)F)c2cc(N3CCC4(C=C(c5c(-c6cccnc6C(F)(F)F)noc5C5CC5)C4)CC3)ccc2n1 [Example 191, 6-(2-(5-Cyclopropyl-3-(2-(trifluoromethyl)pyridin-3-yl)isoxazol-4-yl)-7-azaspiro[3.5]non-1-en-7-yl)-N-(cyclopropylsulfonyl)-4-(difluoromethoxy)quinoline-2-carboxamide]
4 | 238 | CS(=O)(=O)NC(=O)c1cc(OC(F)F)c2cc(N3CCC4(C=C(c5c(-c6cccnc6C(F)(F)F)noc5C5CC5)C4)CC3)ccc2n1 [Example 192, 6-(2-(5-Cyclopropyl-3-(2-(trifluoromethyl)pyridin-3-yl)isoxazol-4-yl)-7-azaspiro[3.5]non-1-en-7-yl)-4-(difluoromethoxy)-N-(methylsulfonyl)quinoline-2-carboxamide]
5 | 178 | O=C(NS(=O)(=O)C1CC1)c1ccc2cc(N3CCC4(C=C(c5c(-c6c(Cl)cccc6Cl)noc5C5CC5)C4)CC3)ccc2n1 [Example 193, 6-(2-(5-Cyclopropyl-3-(2,6-dichlorophenyl)isoxazol-4-yl)-7-azaspiro[3.5]non-1-en-7-yl)-N-(cyclopropylsulfonyl)quinoline-2-carboxamide]
6 | 255 | CS(=O)(=O)NC(=O)c1ccc2cc(N3CCC4(C=C(c5c(-c6c(Cl)cccc6Cl)noc5C5CC5)C4)CC3)ccc2n1 [Example 194, 6-(2-(5-Cyclopropyl-3-(2,6-dichlorophenyl)isoxazol-4-yl)-7-azaspiro[3.5]non-1-en-7-yl)-N-(methylsulfonyl)quinoline-2-carboxamide]
7 | 75 | COc1cc(C(=O)NS(C)(=O)=O)nc2ccc(N3CCC4(C=C(c5c(-c6c(Cl)cncc6Cl)noc5C5CC5)C4)CC3)cc12 [Example 195, 6-(2-(5-Cyclopropyl-3-(3,5-dichloropyridin-4-yl)isoxazol-4-yl)-7-azaspiro[3.5]non-1-en-7-yl)-4-methoxy-N-(methylsulfonyl)quinoline-2-carboxamide]
8 | 155 | COc1cc(C(=O)NS(C)(=O)=O)nc2ccc(N3CCC4(C=C(c5c(-c6ccccc6C(F)(F)F)noc5C5CC5)C4)CC3)cc12 [Example 196, 6-(2-(5-Cyclopropyl-3-(2-(trifluoromethyl)phenyl)isoxazol-4-yl)-7-azaspiro[3.5]non-1-en-7-yl)-4-methoxy-N-(methylsulfonyl)quinoline-2-carboxamide]
9 | 381 | NS(=O)(=O)NC(=O)c1cc(F)c2nc(N3CCC4(C=C(c5c(-c6c(Cl)cncc6Cl)noc5C5CC5)C4)CC3)sc2c1 [Example 197, 2-(2-(5-Cyclopropyl-3-(3,5-dichloropyridin-4-yl)isoxazol-4-yl)-7-azaspiro[3.5]non-1-en-7-yl)-4-fluoro-N-sulfamoylbenzo[d]thiazole-6-carboxamide]
10 | 311 | CNC(=O)c1cc(F)c2nc(N3CCC4(C=C(c5c(-c6c(Cl)cncc6Cl)noc5C5CC5)C4)CC3)sc2c1 [Example 198, 2-(2-(5-Cyclopropyl-3-(3,5-dichloropyridin-4-yl)isoxazol-4-yl)-7-azaspiro[3.5]non-1-en-7-yl)-4-fluoro-N-methylbenzo[d]thiazole-6-carboxamide]
